# Measurements: US20150216168A1, “USE OF SUBSTITUTED 2-AMIDOBENZIMIDAZOLES, 2-AMIDOBENZOXAZOLES AND 2-AMIDOBENZOTHIAZOLES OR SALTS THEREOF AS ACTIVE SUBSTANCES AGAINST ABIOTIC PLANT STRESS” (BAYER CROPSCIENCE AG, priority 2012, published 2015)
# Assays:
# Zea mays = test: Drought stress test on greenhouse crop plants, spray application, corn; type: in vivo; conditions: 250 g/ha
# Experimental: (§1) Seeds of monocotyledonous and dicotyledonous crop plants were laid out in sandy loam in wood-fiber pots, covered with soil or sand and cultivated in a greenhouse under good growth conditions. The test plants were treated at the early leaf stage (BBCH10-BBCH13). To assure uniform water supply before commencement of stress, the potted plants were supplied with water by dam irrigation prior to substance application. The compounds according to the invention, formulated in the form of wettable powders (WP), were sprayed onto the green parts of the plants as an aqueous suspension at an equivalent water application rate of 600 I/ha with addition of 0.2% wetting agent (e.g. agrotin). Substance application was followed immediately by stress treatment of the plants. For this purpose, the pots were transferred into plastic inserts in order to prevent them from subsequently drying out too quickly. Drought stress was induced by gradual drying out under the following conditions:
# (§2) “Day”: 14 hours with illumination at 26° C. […]
# (§3) After the recovery phase had ended, the intensities of damage were analyzed in visual comparison to untreated, unstressed controls for the same age. The intensity of damage was first recorded as a percentage (100%=plants have died, 0%=like control plants). […]
# (§4) In each trial, 3 pots per crop and dosage were treated and evaluated; the resulting efficacies are thus averages. […]
# Hordeum vulgare = test: Drought stress test on greenhouse crop plants, spray application, barley; type: in vivo; conditions: 500 g/ha
# Experimental: as §1, §2, §3, §4
smiles,measurement,setting,value
"NC(=O)c1cccc2oc(-c3ccc(Cl)cc3Cl)nc12 [B1-18, 2-(2,4-Dichlorophenyl)-1,3-benzoxazole-4-carboxamide]","EF (ZEAMX): efficacy, percentage reduction in the intensity of damage",Zea mays,>5%
same,"EF (HORVS): efficacy, percentage reduction in the intensity of damage",Hordeum vulgare,>5%
